Laboratory results reported in patent US20230116602A1, “MCL1 INHIBITORS AND USES THEREOF” (California Institute of Technology, priority 2019, published 2023).
pIC50, pKd: −log10 of the molar value.

Assays:
[1] = system: drug-sensitive cell lines of Table 3; assay: Cell line growth retardation assay, sensitive cohort; format: cell-based, Human; conditions: for pIC50: Homo sapiens, 144 h, arithmetic mean of IC50s over the sensitive cohort of Table 3, 6 days growth, read-out: AvgSen IC50; for Fold Diff: average IC50 of resistant cohort divided by average IC50 of sensitive cohort
Outline: (§1)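 Cell lines classed as MCL1-inhibition sensitive or resistant were seeded, rested 24 h, then exposed to 10–0.0032 μM compound for 6 days. Cells were counted by imaging; growth inhibition was the ratio of population doublings with vs without compound from a pre-treatment baseline. IC50 from curve fits, averaged per cohort.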

MCL1 = MCL1 (Homo sapiens, UniProt Q07820); assay: MCL1 affinity assay (competition binding, qPCR readout); conditions: recombinant MCL1, 11-point 3-fold dilution series
Outline: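 Competition binding: DNA-tagged recombinant protein (E. coli BL21-derived or HEK-293), biotinylated peptide ligand-loaded streptavidin beads and compound incubated 1 hour at room temperature, 0.9% DMSO final. Bound protein eluted with 0.5 μM non-biotinylated ligand and quantified by qPCR; Kd from 11-point 3-fold dilution series.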

[2] = system: drug-resistant cell lines of Table 3; assay: Cell line growth retardation assay, resistant cohort; format: cell-based, Human; conditions: Homo sapiens, 144 h; arithmetic mean of IC50s over the resistant cohort of Table 3, 6 days growth; read-out: AvgRes IC50
Outline: as §1

MCL1, sequence (Q07820 whole entry): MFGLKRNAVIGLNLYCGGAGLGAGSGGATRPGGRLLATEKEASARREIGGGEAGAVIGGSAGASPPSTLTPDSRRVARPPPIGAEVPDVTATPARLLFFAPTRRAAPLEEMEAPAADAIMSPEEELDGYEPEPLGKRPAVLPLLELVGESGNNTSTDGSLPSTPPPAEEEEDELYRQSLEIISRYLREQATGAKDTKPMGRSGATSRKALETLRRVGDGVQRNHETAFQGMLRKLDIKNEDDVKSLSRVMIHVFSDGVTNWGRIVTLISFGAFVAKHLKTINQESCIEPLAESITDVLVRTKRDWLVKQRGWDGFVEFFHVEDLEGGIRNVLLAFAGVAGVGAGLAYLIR

pKd (MCL1) | Compound | pIC50 [1] | Fold Diff [1] | pIC50 [2]
≥ 7.00 | COc1cccc(-c2ncc3snc(O[C@H](Cc4ccccc4OCc4ccnc(OCC(F)F)n4)C(=O)O)c3c2-c2ccc(OCCN3CCN(C)CC3)c(Cl)c2C)c1 [Compound 58] | ≥ 6.00 | + (“+” represents a fold difference of 10 or more) | < 5.30
≥ 7.00 | COc1ccccc1-c1nccc(COc2ccccc2C[C@@H](Oc2nsc3cnc(C4CCC4)c(-c4ccc(OCCN5CCN(C)CC5)c(Cl)c4C)c23)C(=O)O)n1 (atropisomer, axis not shown) [Compound 36] | ≥ 6.00 | + (“+” represents a fold difference of 10 or more) | < 5.30
5.82 to 6.30 | COc1cccc(-c2ncc3snc(O[C@H](Cc4ccccc4OCc4ccnc(-c5ccccc5OC)n4)C(=O)O)c3c2-c2ccc(OCCN3CCN(C)CC3)c(Cl)c2C)c1 (atropisomer, axis not shown) [Compound 39] | 5.30 to 6.00 | − (“−” represents a fold difference less than 10) | 5.30 to 6.00
≥ 7.00 | COc1cccc(-c2ncc3snc(O[C@H](Cc4ccccc4OCc4ccnc(OCCC(F)(F)F)n4)C(=O)O)c3c2-c2ccc(OCCN3CCN(C)CC3)c(Cl)c2C)c1 (atropisomer, axis not shown) [Compound 57] | ≥ 6.00 | + (“+” represents a fold difference of 10 or more) | < 5.30
6.30 to 7.00 | Cc1c(-c2c(C3CCC3)ncc3snc(O[C@H](Cc4ccccc4OCc4ccnc(C5CC5)n4)C(=O)O)c23)ccc(OCCN2CCN(C)CC2)c1Cl (atropisomer, axis not shown) [Compound 109] | 5.30 to 6.00 | − (“−” represents a fold difference less than 10) | < 5.30
≥ 7.00 | Cc1c(-c2c(C3CCC3)ncc3snc(O[C@H](Cc4ccccc4OCc4ccnc(-c5cccc(S(C)(=O)=O)c5)n4)C(=O)O)c23)ccc(OCCN2CCN(C)CC2)c1Cl (atropisomer, axis not shown) [Compound 118] | 5.30 to 6.00 | − (“−” represents a fold difference less than 10) | < 5.30
≥ 7.00 | CCOc1cccc(-c2ncc3snc(O[C@H](Cc4ccccc4OCc4ccnc(-c5ccccc5OC)n4)C(=O)O)c3c2-c2ccc(OCCN3CCN(C)CC3)c(Cl)c2C)c1 (atropisomer, axis not shown) [Compound 87] | ≥ 6.00 | + (“+” represents a fold difference of 10 or more) | < 5.30
≥ 7.00 | COc1ccccc1-c1nccc(COc2ccccc2C[C@@H](Oc2nsc3cnc(-c4ccc(F)cc4)c(-c4ccc(OCCC5CCN(C)CC5)c(Cl)c4C)c23)C(=O)O)n1 (atropisomer, axis not shown) [Compound 81] | 5.30 to 6.00 | − (“−” represents a fold difference less than 10) | < 5.30
< 5.82 | Cn1nc(-c2cc(CC3CCC3)c3c(O[C@H](Cc4ccccc4OCc4ccnn4CC(F)(F)F)C(=O)O)nsc3c2)c2ccc(Cl)cc21 [Compound 96] | < 5.30 | − (“−” represents a fold difference less than 10) | < 5.30
≥ 7.00 | COc1ccccc1-c1nccc(COc2ccccc2C[C@@H](Oc2nsc3cnc(-c4ccn(CC(C)C)n4)c(-c4ccc(OCCN5CCN(C)CC5)c(Cl)c4C)c23)C(=O)O)n1 (atropisomer, axis not shown) [Compound 38] | ≥ 6.00 | + (“+” represents a fold difference of 10 or more) | < 5.30
6.30 to 7.00 | COc1ccccc1C[C@@H](Oc1nsc2cnc(-c3cccc(F)c3)c(-c3ccc(OCCN4CCN(C)CC4)c(Cl)c3C)c12)C(=O)O (atropisomer, axis not shown) [Compound 93] | 5.30 to 6.00 | − (“−” represents a fold difference less than 10) | < 5.30
